According to PMC10518257 (Nature Cancer, 2023):
Where “and” joins values, the source holds several entries; their conditions need not be identical. Equal entries are not always repeated. Where two headings read alike, the source gives them in different places.

How the values were obtained:
[1] = test system: LUAD-0057BS1 cells; experiment: Growth inhibition (alamarBlue, 96 h); format: cell-based, human; conditions: LUAD-0057BS1; 10000 nM; replicate sets
[2] = test system: HBECp53-EV cells; experiment: Growth inhibition (alamarBlue, 96 h); format: cell-based, human; conditions: for raw viability signal (Source Data Fig. 3b-c): HBEC-EV, replicate sets
[3] = Transcellular transport study, apparent permeability; conditions: pig, LLC-PK1
[4] = test system: Ba/F3 cells expressing KIF5B–RET^G810S; experiment: Growth inhibition assay in Ba/F3 cells (CellTiter-Glo, 72 h); format: cell-based; conditions: Ba/3-KIF5B-RET-G810S; replicate Sets 1-3
[5] = test system: Ba/F3-CCDC6::RET^S904F; experiment: as above; format: cell-based
[6] = test system: ECLC5B cells; experiment: Growth inhibition (alamarBlue, 96 h); format: cell-based, human; conditions: for raw viability signal (Source Data Fig. 3b-c): ECLC5B, replicates
[7] = test system: phosphorylation of RET^G810R, RET^G810S and RET^G810C in Ba/F3 cells; experiment: Western blotting of RET phosphorylation in Ba/F3 KIF5B–RET cells; format: cell-based; conditions: 1 h, western blot
[8] = test system: Ba/F3 cells expressing KIF5B–RET^G810R; experiment: Growth inhibition assay in Ba/F3 cells (CellTiter-Glo, 72 h); format: cell-based; conditions: replicate Sets 1-3
[9] = test system: TT cells; experiment: Growth inhibition (alamarBlue, 96 h); format: cell-based, human; conditions: for raw viability signal (Source Data Fig. 3b-c): replicate sets
[10] = test system: Ba/F3 cells; experiment: Growth inhibition assay in Ba/F3 cells (CellTiter-Glo, 72 h); format: cell-based; conditions: replicate Sets 1-3
[11] = test system: LUAD-0002AS1 cells; experiment: Growth inhibition (alamarBlue, 96 h); format: cell-based, human; conditions: for raw viability signal (Source Data Fig. 3b-c): LUAD-0002AS1, replicate sets
[12] = test system: Ba/F3 cells expressing KIF5B–RET^WT; experiment: Growth inhibition assay in Ba/F3 cells (CellTiter-Glo, 72 h); format: cell-based; conditions: replicate sets
[13] = test system: Ba/F3-CCDC6::RET; experiment: as above; format: cell-based
[14] = Homo sapiens, 96 h, read-out: IC50 for Inhibition of Growth (95% CI)

With `CO[C@]1(C(=O)N[C@@H](C)c2ccc(-n3cc(F)cn3)nc2)CC[C@H](c2nc(C)cc(Nc3cc(C)[nH]n3)n2)CC1` [Pralsetinib] the “raw viability signal (Source Data Fig. 3b-c)” value (from here on “raw viability signal”) [1] was 968.48 and 1261.32 and 1236.21, the “raw viability signal” value ([2]; 0.01 nM) was 18620.9 (2×) and 26084.1 and 32208.8 and the “raw viability signal” value ([2]; 0.1 nM) was 18754 (2×) and 26388.7 and 34047.4. For the same compound, the “raw viability signal” value ([2]; 1 nM) was 20833.4 (2×) and 23057.6 and 32620.9, the “raw viability signal” value ([2]; 10 nM) was 19432.8 (2×) and 24252.3 and 33045.2 and the “raw viability signal” value ([2]; 100 nM) was 20060.8 (2×) and 26236.5 and 33461.6. The “raw viability signal” value ([2]; 1000 nM) was 13712.5 (2×) and 19031.7 and 36040.1, the “raw viability signal” value ([2]; 10000 nM) was 6305.27 (2×) and 11469.7 and 22649.7 and the IC50 [2, 14] was 6900 nM. The Papp at 3 h, 1 μM [3] was 14.3 ×10⁻⁶ cm/s, the GI50 [4] was 26.2 nM and 86 nM and 39.5 nM and the GI50 ([5]; BaF3/CCDC6-RET, read-out: GI50 values, Ba/F3-CCDC6::RET S904F, individual sets (replicate experiments)) was 6.22 nM. The GI50 ([5]; Mus musculus, BaF3, 72 h, read-out: GI50 value (Mean ± SD), Ba/F3-CCDC6::RET^S904F, CellTiter-Glo, 72 h) was 6.02 ± 1.69 nM, the GI50 ([5]; read-out: GI50 values, Ba/F3-CCDC6::RET S904F, individual sets (replicate experiments)) was 7.61 nM and 4.24 nM and the “raw viability signal” value ([6]; 0.01 nM) was 11159.3 and 6334.79 and 21867.4. The “raw viability signal” value ([6]; 0.1 nM) was 11498.4 and 7246.25 and 22158.4, the “raw viability signal” value ([6]; 1 nM) was 11273.5 and 6357.98 and 19717.2 and the “raw viability signal” value ([6]; 10 nM) was 5160.26 and 1378.73 and 8133.57. For the same compound, the “raw viability signal” value ([6]; 100 nM) was 2920.41 and 1318.47 and 4448.62, the “raw viability signal” value ([6]; 1000 nM) was 1849.04 and 1272.17 and 3256.96 and the “raw viability signal” value ([6]; 10000 nM) was 1438.61 and 1223.5 and 2843.35. For the same compound, the IC50 [6, 14] was 6 nM, the “block of phosphorylation of RET^G810R, RET^G810S or RET^G810C” value [7] was “did not block” and the GI50 ([8]; Ba/3-KIF5B-RET-G810R) was 1420 nM and 1200 nM. The GI50 ([8]; Mus musculus, BaF3, Ba/3-KIF5B-RET-G810R) was 816 nM, the “raw viability signal” value ([9]; 0.01 nM) was 22929.2 and 25490.7 and 28433.6 and 13300.2 and 25151.2 and the “raw viability signal” value ([9]; 0.1 nM) was 22974.2 and 25164.4 and 33337.3 and 15066.6 and 24111.4. The “raw viability signal” value ([9]; 1 nM) was 21557.9 and 25049.8 and 31833.5 and 13551.8 and 21692.4, the “raw viability signal” value ([9]; 10 nM) was 15259.3 and 23182.3 and 22444.5 and 12016.9 and 18286.5 and the “raw viability signal” value ([9]; 100 nM) was 9067.36 and 11673.9 and 13386.9 and 6206.3 and 13339.4. The “raw viability signal” value ([9]; 1000 nM) was 7976.19 and 8542.52 and 11087 and 4402.24 and 11387.8, the “raw viability signal” value ([9]; 10000 nM) was 7016.43 and 7739.61 and 10148.3 and 3836.13 and 9483.47 and the IC50 [9, 14] was 30 nM. The GI50 ([10]; Ba/F3 (parental)) was 1420 nM, the GI50 ([10]; Mus musculus, BaF3, Ba/F3 (parental)) was 1070 nM and the IC50 [11, 14] was 4 nM. The “raw viability signal” value ([11]; 0.01 nM) was 15231.7 and 11282.9 and 12487.7, the “raw viability signal” value ([11]; 0.1 nM) was 13433.7 and 11365.6 and 12797.1 and the “raw viability signal” value ([11]; 1 nM) was 14274.6 and 7102.45 and 10515. For the same compound, the “raw viability signal” value ([11]; 10 nM) was 5412.04 and 2878.75 and 4059.15, the “raw viability signal” value ([11]; 100 nM) was 2211.78 and 2052.44 and 2966.29 and the “raw viability signal” value ([11]; 1000 nM) was 1138.02 and 1548.13 and 2436.62. The “raw viability signal” value ([11]; 10000 nM) was 935.955 and 1429.45 and 2173.09, the GI50 ([12]; Ba/3-KIF5B-RET) was 7.33 nM and 4.09 nM and the GI50 ([12]; Mus musculus, BaF3, Ba/3-KIF5B-RET) was 8.11 nM. The GI50 ([13]; BaF3/CCDC6-RET, 72 h, read-out: GI50 value (Mean ± SD), Ba/F3-CCDC6::RET, CellTiter-Glo, 72 h) was 19.9 ± 10.6 nM and the GI50 ([13]; read-out: GI50 values, Ba/F3-CCDC6::RET, individual sets (replicate experiments)) was 11.8 nM and 31.9 nM and 15.9 nM.
